Data from paper PMC3800186 (Biochemistry, 2013).
Entries after “also recorded” stand apart in the source; their conditions may differ.

Assays:
[1] = system: gp120 interaction with sCD4; conditions: read-out: IC50(SPR) sCD4, shown for comparison, ref ([19]) and ([30]); cited from earlier work
S375A gp120 = S375A gp120 (Human immunodeficiency virus type 1 group M subtype B, UniProt P35961, S370A); type: binding, HIV-1; conditions: immobilized S375A gp120, SPR
[2] = target: S375A gp120 interaction with sCD4 (Human immunodeficiency virus type 1 group M subtype B, UniProt P35961, S370A); test: SPR KR21/sCD4 competition over immobilized S375A gp120; type: binding, HIV-1; conditions: S375A versus WT
[3] = system: gp120 interaction with mAb 17b; conditions: read-out: IC50(SPR) mAb 17b, shown for comparison, ref ([19]) and ([30]); cited from earlier work
mutant gp120 (S375W) = conditions: ref ([15]); cited from earlier work
[4] = system: mutant gp120 (I423P) binding of F105 antibody; conditions: ref ([15], [48]); cited from earlier work

Row | Compound | IC50 [1] [nM] | direct binding to S375A gp120 (S375A gp120) | reduction in sCD4 inhibitory potency, S375A compared to WT gp120 [2] [fold] | IC50 [3] [nM] | binding to gp120 with pocket-filling S375W mutation (mutant gp120 (S375W)) | inhibition of sCD4 binding to mutant gp120 (S375W) (mutant gp120 (S375W)) | inhibition of F105 antibody binding to mutant gp120 (I423P) [4]
1 | CC[C@H](C)[C@H](NC(=O)[C@@H](N)CCCNC(=N)N)C(=O)N[C@@H](CC(N)=O)C(=O)N[C@@H](CC(N)=O)C(=O)N[C@H](C(=O)N1C[C@@H](n2cc([C]34[CH]5[CH]6[CH]7[CH]3[Fe]6754389%10[CH]4[CH]3[CH]8[CH]9[CH]4%10)nn2)C[C@H]1C(=O)N[C@@H](Cc1c[nH]c2ccccc12)C(=O)NCCC(=O)N[C@@H](CCCCNC(=O)CCCC[C@@H]1SC[C@@H]2NC(=O)N[C@@H]21)C(=O)NCC(N)=O)[C@@H](C)CC (stereo partly drawn) [KR21, R^1-I^2-N^3-N^4-I^5-X^6-W^7-βA^8-BtLys^9-G^10] | 85 | severely disrupted; also recorded: could not be fitted | 20 | 110 |  |  | 
2 | RINNIPWSEAMM [12p1] | 1100 |  |  | 1600 | completely abrogated | does not inhibit; also recorded: resistant | inhibits
